Data taken from patent publication US10857247B2, “Compounds and compositions for the detection and treatment of Alzheimer's disease and related disorders” (The General Hospital Corporation, priority 2008, dated 2020).
Like-named read-outs stand apart in the source and are kept apart here.

Legend:
[1] = normal mice, iv, cited from earlier work
[2] = tested on: brain amyloid deposits; conditions: APP23 transgenic mice, 180 min after iv injection; cited from earlier work
[3] = cited from earlier work
[4] = Biodistribution of [18F]fluoro-RS 86 in rats; assay type: in vivo
Method: As described above, 2-(2-methanesulfonylethyl)-8-methyl-2,8-diazaspiro[4,5]decane-1,3-dione was prepared in five steps. The RS-86 mesylate (2 mg) in acetonitrile (0.1 mL) was added to a sealed vial containing dried K^18F/kryptofix and heated at 120° C. for 10 min. The mixture was diluted with water (0.2 mL) and purified by HPLC (C-18 column 250×10 mm, flow 6 mL/min, PBS/acetonitrile (95:5). The fraction containing [^18F]fluoro-RS 86 was evaporated to dryness and the activity dissolved in PBS before filtering. Biodistribution was performed in rats at 5, 30 and 60 min.

CNc1ccc(C=Cc2nc3ccc(OCCF)cc3o2)cc1 [BF-168, 6-(2-fluoroethoxy)-2-[2-(4-methylaminophenyl)ethenyl]-benzoxazole]
Initial brain uptake ([1]; at 2 min after injection): 3.9 % injected dose/gm
Clearance t1/2 ([1]; clearance from brain): 24.7 min
Labeling in autoradiograms of brain sections [2]: selective labeling of brain amyloid deposits with little non-specific binding

CCN1C(=O)CC2(CCN([11CH3])CC2)C1=O [[^11C]RS-86]
Brain uptake ([3]; comparison value for the C-11 labeled analog): 1%
Initial brain uptake ([3]; rats, biodistribution as a function of time): about 1.1%

O=C1CC2(CCNCC2)C(=O)N1CC[18F] [[^18F]fluoro-RS 86, [F-18]-N-2-fluoroethyl-2,8-diazaspiro[4,5]decane-1,3-dione]
Brain uptake ([4]; 5 min): 0.27
Brain uptake ([4]; 30 min): 0.54
Brain uptake ([4]; 60 min): 0.48
Blood uptake ([4]; at 30 min): 0.3%
Liver uptake ([4]; at 30 min): 0.64%
Stomach uptake ([4]; at 30 min): 0.90%
Uptake in the kidneys (greatest uptake) ([4]; at 30 min): 2.5%
Defluorination (uptake in bone) ([4]; bone at 30 min): 0.42%
Brain uptake ([4]; restated in comparison with [11C]RS-86): 0.54%
